Measured values taken from patent US5244795A, “Processes for preparing cholesterol lowering compounds” (Merck & Co., Inc., priority 1992, dated 1993).
Converted amounts (≈) assume the structure as drawn.

Tests used:
Format in all cases: cell-based
Torulopsis glabrata = assay: FISP disc diffusion assay; conditions: Nakaseomyces glabratus; 250 μg/ml in CH2Cl2; read-out: diameter of the zone of inhibition of growth
Excerpt: (§1) The FISP assay employs disc diffusion susceptibility testing methods to generate a spectrum of activity against a panel of representative yeasts, filamentous fungi and bacteria.
(§2) The yeasts employed in the assay are Saccharomyces cerevisiae, Candida albicans, Candida tropicalis, Candida rugosa, Brettanomyces bruxellensis, Torulospora hansenii, Candida guilliermondi, Candida pseudotropicalis, Torulopsis glabrata, Cryptococcus albidus, Cryptococcus laurentii and Kluyveromyces fragilis.
(§3) For carrying out the assay, seeded assay plates are prepared in the following manner according to the type of assay strain.
(§4) Inocula for yeasts and bacterial strains are prepared from overnight broth cultures then diluted into potato dextrose agar to a final concentration of either 40 percent or 70 percent transmission at 660 nm.
(§5) Assay plates for the yeasts and filamentous fungi are prepared by diluting the inoculum into appropriate molten agar medium, cooled to 45° C. to obtain a final concentration of 4 percent.
(§6) The seeded agar media thus prepared are dispensed into petri dishes for assays (11 ml per dish). […]
(§7) Following incubation, the inhibition zones are measured and recorded. […]
(§8) FISP data is reported as the diameter (in mm.) of the zone of inhibition of growth in agar diffusion assays. The zone is determined by measuring growth that differs from the background lawn. […]

Candida guilliermondii [1] = assay: FISP disc diffusion assay; conditions: Meyerozyma guilliermondii; 250 μg/ml in CH2Cl2; read-out: diameter of the zone of inhibition of growth
Excerpt: as §1, §2, §3, §4, §5, §6, §7, §8

T. mentagrophytes = assay: Microdilution broth assay; conditions: Trichophyton mentagrophytes; strain MF 4864; 35° C., 48-72 hours; read-out: MIC (minimum inhibitory concentration)
Protocol: (§9) The broad spectrum antifungal activity of the present compounds was further determined by broth dilution methods. The compounds are particularly active towards filamentous fungi and yeasts including Candida albicans and Crypt. neoformans. The sensitivity of filamentous fungi and yeasts was determined using inhibitor dilution assays in microtiter format. A standardized spore suspension for testing the filamentous fungi was prepared by inoculating sterile distilled water with spores such that 1.5-7.5×10^3 colony forming units were added per well. The microtiter wells were filled with 75 μl of yeast nitrogen base containing 1% Dextrose medium (YNB/D) containing compound. Fifty μl of inoculated YNB/D medium was then added to the wells.
(§10) The sensitivity of yeasts was determined by inoculating sterile distilled water with aliquots of a 4-hour yeast culture grown in Yeast Morphology (YM) media at 35° C. and diluting in YNB/D to yield a final concentration of 1.5-7.5×10^3 colony forming units/well. Seventy-five μl of inoculated media was added per well. To test the sensitivity of yeast, compound was solubilized in 10 percent aqueous DMSO at 2.56 mg/ml. The compound was diluted serially in YNB/D from 128 to 0.06 μg/ml. The wells were filled with 75 μl of drug containing media. […] Representative of the antifungal activity are the minimum inhibitory concentration and minimum fungicidal concentration data shown below in Table II: […]

Candida albicans = assay: Microdilution broth assay; conditions: 35° C., 24 to 48 hours
Protocol: as §9, §10

Cryptococcus neoformans = assay: Microdilution broth assay; conditions: strain MY 1051, 35° C., 24 to 48 hours, read-out: MIC (minimum inhibitory concentration)
Protocol: as §9, §10

Candida guilliermondii [2] = assay: Microdilution broth assay; conditions: Meyerozyma guilliermondii; strain MY 1019; 35° C., 24 to 48 hours; read-out: MIC (minimum inhibitory concentration)
Protocol: as §9, §10

Saccharomyces cerevisiae = assay: Microdilution broth assay; conditions: strain MY 1976, 35° C., 24 to 48 hours, read-out: MIC (minimum inhibitory concentration)
Protocol: as §9, §10

Candida parapsilosis = assay: Microdilution broth assay; conditions: Lodderomyces parapsilosis; strain MY 1010; 35° C., 24 to 48 hours; read-out: MIC (minimum inhibitory concentration)
Protocol: as §9, §10

Aspergillus fumigatus = assay: Microdilution broth assay; conditions: strain MF 4839, 35° C., 48-72 hours, read-out: MIC (minimum inhibitory concentration)
Protocol: as §9, §10

Candida tropicalis = assay: Microdilution broth assay; conditions: strain MY 1012, 35° C., 24 to 48 hours, read-out: MIC (minimum inhibitory concentration)
Protocol: as §9, §10

Scopulariopsis communis = assay: FISP disc diffusion assay; parameters: key: F: clear zone, fuzzy edges; S: slightly hazy zone (some growth observed throughout zone); H: hazy zone (considerable growth observed throughout zone); V: very hazy zone (zone of inhibition is barely discernable); R: zone displays a ring of resistant growth; no qualifier: clear zone throughout, sharp edges; conditions: 250 μg/ml in CH2Cl2
Excerpt: as §1
(§11) The filamentous fungi used in the assay were Penicillium sp. Aspergillus niger, Trichoderma sp., Phoma sp., Trichoderma lignorum, Fusarium oxysporum, Ustilago maydis, Ceratocystis ulmi, Alternaria soloni, Verticillium serrae, Botrytis allii, Scopulariopsis communis, Cephalosporium sp., Cercospora beticola, Rhizomucor miehei, Aspergillus flavus and Aspergillus fumigatus.
as §3
(§12) Inocula for filamentous fungi are prepared by scraping the surface of stock plates maintained on potato dextrose agar with a moistened sterile dacron swab. The spores and mycelia are then suspended in 10 milliliters of sterile potato dextrose broth and adjusted to 65 percent transmission at 660 nm.
as §5
(§13) The seeded agar media thus prepared are dispensed into petri dishes for assays (11 ml per dish).
(§14) The samples to be tested for production of antifungal agent are applied to 6.2 mm filter paper discs (25 μl/disc) and air dried at 24° C. When the sample to be tested is crude broth, it may be centrifuged prior to application. The discs bearing the material to be tested are then applied employing sterile conditions to the seeded assay plates. The assay plates are then incubated at either 28° C. or 37° C. for 24 hours. In one of the assays for Bacillus subtilis, the sample is applied to a disc previously impregnated with 4M potassium chloride at 25 μl/disc and then air dried.
(§15) Following incubation, the inhibition zones are measured and recorded. The measurements are made from the extreme edge where growth differs from the background zone. The zones are noted as to appearance as fuzzy edge and clear center, hazy throughout, slightly hazy, very hazy or ringed.
(§16) FISP data is reported as the diameter (in mm.) of the zone of inhibition of growth in agar diffusion assays. The zone is determined by measuring growth that differs from the background lawn. A qualifier is also added to describe the zone quality as listed below: no qualifier: clear zone throughout, sharp edges

Phoma sp. = assay: FISP disc diffusion assay; parameters: key: F: clear zone, fuzzy edges; S: slightly hazy zone (some growth observed throughout zone); H: hazy zone (considerable growth observed throughout zone); V: very hazy zone (zone of inhibition is barely discernable); R: zone displays a ring of resistant growth; no qualifier: clear zone throughout, sharp edges; conditions: 250 μg/ml in CH2Cl2
Excerpt: as §1, §11, §3, §12, §5, §13, §14, §15, §16

Cercospora beticola = assay: FISP disc diffusion assay; parameters: key: F: clear zone, fuzzy edges; S: slightly hazy zone (some growth observed throughout zone); H: hazy zone (considerable growth observed throughout zone); V: very hazy zone (zone of inhibition is barely discernable); R: zone displays a ring of resistant growth; no qualifier: clear zone throughout, sharp edges; conditions: 250 μg/ml in CH2Cl2
Excerpt: as §1, §11, §3, §12, §5, §13, §14, §15, §16

`CC(/C=C/C=C(\C)C(O)C(C)C(=O)O[C@H]1C[C@H](C)C=C2C=C[C@@]3(C)O[C@@H](O)CC(=O)[C@]3(C)[C@H]21)=C\C=C\C(=O)O` (some centres unmarked) [Compound A] showed a zone of inhibition at 250 µg/mL (Torulopsis glabrata) of 0 mm, a zone of inhibition at 250 µg/mL (Candida guilliermondii [1]) of 0 mm and an MIC (T. mentagrophytes) of 32 µg/mL (≈ 59.2 µM). The MIC (Candida albicans; Candida albicans, strain MY 1055, read-out: MIC (minimum inhibitory concentration)) was at most 0.06 µg/mL, the “MIC (minimum inhibitory concentration)” value (Candida albicans; strain MY 1028) was at most 0.06 µg/mL and the MIC (Cryptococcus neoformans) was 32 µg/mL (≈ 59.2 µM). It also gave an MIC (Candida guilliermondii [2]) of over 128 µg/mL, an MIC (Saccharomyces cerevisiae) of over 128 µg/mL and an MIC (Candida parapsilosis) of 0.25 µg/mL (≈ 0.462 µM). For the same molecule, the MIC (Aspergillus fumigatus) was 64 µg/mL (≈ 118 µM), the MIC (Candida tropicalis) was at most 0.06 µg/mL and the zone quality qualifier (Scopulariopsis communis) was “F”. For the same molecule, the zone quality qualifier (Phoma sp.) was “S” and the zone quality qualifier (Cercospora beticola) was “S”.
